Experimental data taken from patent US9169199B2, “Cycloalkyl guanidine F1F0-ATPase inhibitors and therapeutic uses thereof” (Lycera Corporation, priority 2010, dated 2015).

Columns and labels:
F1F0-ATPase = biological target: T1, F1F0-ATPase (Bos taurus, UniProt P13621); test: Inhibition of ATP synthesis by the F1F0-ATPase; type: biochemical
T1 construct: from tissue
Description: (§1) Compounds in Example 4 above were tested for activity against F1F0-ATPase by measuring ATP synthesis. In addition, the compounds were assessed for cytotoxicity in Ramos cells. Inhibition of ATP synthesis by the F1F0-ATPase and cytotoxicity in Ramos cells were measured according to the procedures described in K. M. Johnson et al. Chemistry & Biology 2005, 12, 485-496.

Ramos cells = test: Cytotoxicity in Ramos cells; type: cell-based; conditions: Homo sapiens, read-out: Ramos cell EC50
Description: as §1

| SMILES | IC50 (F1F0-ATPase) | EC50 (Ramos cells) |
| --- | --- | --- |
| CC(C)(C)c1ccccc1N/C(=N\C(=O)c1ccc(C(F)(F)F)cc1)N[C@H]1CC[C@H](O)CC1 [Compound 1] | < 10 µM | < 10 µM |
| O=C(/N=C(\Nc1cccc(C(F)(F)F)c1)N[C@H]1CC[C@H](O)CC1)c1ccc(C(F)(F)F)cc1 [Compound 2] | < 10 µM | < 10 µM |
| CS(=O)(=O)N[C@H]1CC[C@H](N/C(=N\C(=O)c2ccc(F)c(F)c2)Nc2cccc(C(F)(F)F)c2)CC1 [Compound 3] | < 10 µM | < 10 µM |
| O=C(/N=C(/Nc1cccc(C(F)(F)F)c1)N[C@H]1CC[C@H](O)CC1)c1ccc(F)c(F)c1 [Compound 4] | < 10 µM | < 10 µM |
| O=C(/N=C(/Nc1cccc(Cl)c1)N[C@H]1CC[C@H](O)CC1)c1ccc(F)c(F)c1 [Compound 5] | > 10 µM | < 10 µM |
| O=C(/N=C(/Nc1cc(F)cc(Cl)c1)N[C@H]1CC[C@H](O)CC1)c1ccc(F)c(F)c1 [Compound 6] | < 10 µM | < 10 µM |
| O=C(/N=C(/Nc1cc(F)cc(Cl)c1)N[C@H]1CC[C@H](O)CC1)c1ccc(C(F)(F)F)cc1 [Compound 7] | < 10 µM | < 10 µM |
| O=C(/N=C(/Nc1cccc(Cl)c1)N[C@H]1CC[C@H](O)CC1)c1ccc(C(F)(F)F)cc1 [Compound 8] | < 10 µM | < 10 µM |
| O=C(/N=C(/Nc1cc(F)cc(Cl)c1)N[C@H]1CC[C@H](Nc2ncccn2)CC1)c1ccc(F)c(F)c1 [Compound 9] | < 10 µM | < 10 µM |
| CCOC(=O)N[C@H]1CC[C@H](N/C(=N/C(=O)c2ccc(F)c(F)c2)Nc2cc(F)cc(Cl)c2)CC1 [Compound 10] | < 10 µM | < 10 µM |
| COC(=O)N[C@H]1CC[C@H](N/C(=N/C(=O)c2ccc(F)c(F)c2)Nc2cc(F)cc(Cl)c2)CC1 [Compound 11] | < 10 µM | < 10 µM |
| N[C@H]1CC[C@H](N/C(=N/C(=O)c2ccc(F)c(F)c2)Nc2cc(F)cc(Cl)c2)CC1 [Compound 12] | > 10 µM | < 10 µM |
| N[C@H]1CC[C@H](N/C(=N/C(=O)c2ccc(F)c(F)c2)Nc2cccc(C(F)(F)F)c2)CC1 [Compound 13] | > 10 µM | < 10 µM |
| CCOC(=O)N[C@H]1CC[C@H](N/C(=N/C(=O)c2ccc(F)c(F)c2)Nc2cccc(C(F)(F)F)c2)CC1 [Compound 14] | < 10 µM | < 10 µM |
| COC(=O)N[C@H]1CC[C@H](N/C(=N/C(=O)c2ccc(F)c(F)c2)Nc2cccc(C(F)(F)F)c2)CC1 [Compound 15] | < 10 µM | < 10 µM |
| O=C(/N=C(\NCc1ccccc1C(F)(F)F)N[C@H]1CC[C@H](O)CC1)c1ccc(F)c(F)c1 [Compound 16] | > 10 µM | < 10 µM |
| O=C(/N=C(/NCc1ccccc1C(F)(F)F)N[C@H]1CC[C@H](O)CC1)c1ccc(C(F)(F)F)cc1 [Compound 17] | < 10 µM | < 10 µM |
| CCOC(=O)N[C@H]1CC[C@H](N/C(=N\C(=O)c2ccc(C(F)(F)F)cc2)Nc2cccc(Cl)c2)CC1 [Compound 18] | < 10 µM | < 10 µM |
| CCOC(=O)N[C@H]1CC[C@H](N/C(=N/C(=O)c2ccc(F)c(F)c2)Nc2cccc(Cl)c2)CC1 [Compound 19] | < 10 µM | < 10 µM |
| O=C(/N=C(/Nc1cccc(Cl)c1)N[C@H]1CC[C@H](Nc2ncccn2)CC1)c1ccc(F)c(F)c1 [Compound 20] | < 10 µM | < 10 µM |

| SMILES | IC50 (F1F0-ATPase) | EC50 (Ramos cells) |
| --- | --- | --- |
| O=C(/N=C(/Nc1ccccc1C1CC1)N[C@H]1CC[C@H](O)CC1)c1ccc(C(F)(F)F)cc1 [Compound 21] | < 10 µM | < 10 µM |
| O=C(/N=C(/Nc1ccccc1C1CC1)N[C@H]1CC[C@H](O)CC1)c1ccc(Cl)cc1 [Compound 22] | > 10 µM | > 10 µM |
| O=C(/N=C(/Nc1ccccc1C1CC1)N[C@H]1CC[C@H](O)CC1)c1ccc(F)c(F)c1 [Compound 23] | > 10 µM | > 10 µM |
| O=C(/N=C(/Nc1cccc(C(F)(F)F)c1)N[C@H]1CC[C@H](O)CC1)c1cccc(Cl)c1 [Compound 24] | < 10 µM | < 10 µM |
| O=C(/N=C(/Nc1cccc(Cl)c1)N[C@H]1CC[C@H](O)CC1)c1cccc(Cl)c1 [Compound 25] | > 10 µM | < 10 µM |
| O=C(/N=C(/Nc1cc(F)cc(Cl)c1)NC1CCC(O)CC1)c1cccc(Cl)c1 (stereo not shown) [Compound 26] | – | < 10 µM |
| O=C(/N=C(/Nc1cc(F)cc(Cl)c1)N[C@H]1CC[C@H](O)CC1)c1cccc(Cl)c1 [Compound 26] | < 10 µM | – |
| O=C(/N=C(/Nc1cccc(Cl)c1)N[C@H]1CC[C@H](O)CC1)c1ccc(Cl)cc1 [Compound 27] | > 10 µM | < 10 µM |
| O=C(/N=C(/Nc1cc(F)cc(Cl)c1)N[C@H]1CC[C@H](O)CC1)c1ccc(Cl)cc1 [Compound 28] | > 10 µM | < 10 µM |
| O=C(/N=C(/Nc1cccc(C(F)(F)F)c1)N[C@H]1CC[C@H](O)CC1)c1ccc(Cl)cc1 [Compound 29] | < 10 µM | < 10 µM |
| O=C(/N=C(/Nc1cccc(C(F)(F)F)c1)N[C@H]1CC[C@H](O)CC1)c1cccc(C(F)(F)F)c1 [Compound 30] | < 10 µM | < 10 µM |
| O=C(/N=C(/NCc1ccc(Cl)cc1)N[C@H]1CC[C@H](O)CC1)c1ccc(F)c(F)c1 [Compound 31] | > 10 µM | > 10 µM |
| O=C(/N=C(/NCc1ccccc1C(F)(F)F)N[C@H]1CC[C@H](O)CC1)c1ccc(F)c(F)c1 [Compound 32] | – | > 10 µM |
| O=C(/N=C(/NCc1cccc(C(F)(F)F)c1)N[C@H]1CC[C@H](O)CC1)c1ccc(F)c(F)c1 [Compound 33] | > 10 µM | < 10 µM |
| O=C(/N=C(/NCc1ccc(C(F)(F)F)cc1)N[C@H]1CC[C@H](O)CC1)c1ccc(F)c(F)c1 [Compound 34] | > 10 µM | < 10 µM |
| O=C(/N=C(/NCc1ccccc1F)N[C@H]1CC[C@H](O)CC1)c1ccc(F)c(F)c1 [Compound 35] | > 10 µM | > 10 µM |
| O=C(/N=C(/NCc1cccc(F)c1)N[C@H]1CC[C@H](O)CC1)c1ccc(F)c(F)c1 [Compound 36] | > 10 µM | > 10 µM |
| O=C(/N=C(/NCc1ccc(F)cc1)N[C@H]1CC[C@H](O)CC1)c1ccc(F)c(F)c1 [Compound 37] | > 10 µM | > 10 µM |
| O=C(/N=C(/NCc1cc(F)ccc1F)N[C@H]1CC[C@H](O)CC1)c1ccc(F)c(F)c1 [Compound 38] | > 10 µM | > 10 µM |
| O=C(/N=C(/NCc1ccc(F)c(F)c1)N[C@H]1CC[C@H](O)CC1)c1ccc(F)c(F)c1 [Compound 39] | > 10 µM | < 10 µM |

| SMILES | IC50 (F1F0-ATPase) | EC50 (Ramos cells) |
| --- | --- | --- |
| O=C(/N=C(/NCc1cccc(F)c1F)N[C@H]1CC[C@H](O)CC1)c1ccc(F)c(F)c1 [Compound 40] | > 10 µM | > 10 µM |
| O=C(/N=C(/NCc1ccc(F)cc1F)N[C@H]1CC[C@H](O)CC1)c1ccc(F)c(F)c1 [Compound 41] | > 10 µM | > 10 µM |
| O=C(/N=C(/NCc1cc(F)cc(F)c1)N[C@H]1CC[C@H](O)CC1)c1ccc(F)c(F)c1 [Compound 42] | > 10 µM | > 10 µM |
| O=C(/N=C(/NCc1ccc(F)cc1Cl)N[C@H]1CC[C@H](O)CC1)c1ccc(F)c(F)c1 [Compound 43] | > 10 µM | > 10 µM |
| O=C(/N=C(/NCc1ccc(F)c(Cl)c1)N[C@H]1CC[C@H](O)CC1)c1ccc(F)c(F)c1 [Compound 44] | > 10 µM | < 10 µM |
| O=C(/N=C(/NCc1ccc(Cl)c(F)c1)N[C@H]1CC[C@H](O)CC1)c1ccc(F)c(F)c1 [Compound 45] | < 10 µM | < 10 µM |
| O=C(/N=C(/NCc1ccc(Cl)cc1F)N[C@H]1CC[C@H](O)CC1)c1ccc(F)c(F)c1 [Compound 46] | > 10 µM | < 10 µM |
| CCOC(=O)N[C@H]1CC[C@H](N/C(=N\C(=O)c2ccc(F)c(F)c2)NCc2ccccc2Cl)CC1 [Compound 47] | < 10 µM | < 10 µM |
| CCOC(=O)N[C@H]1CC[C@H](N/C(=N\C(=O)c2ccc(F)c(F)c2)NCc2cccc(Cl)c2)CC1 [Compound 48] | < 10 µM | < 10 µM |
| CCOC(=O)N[C@H]1CC[C@H](N/C(=N\C(=O)c2ccc(F)c(F)c2)NCc2ccc(Cl)cc2)CC1 [Compound 49] | < 10 µM | < 10 µM |
| CCOC(=O)N[C@H]1CC[C@H](N/C(=N\C(=O)c2ccc(F)c(F)c2)NCc2ccccc2C(F)(F)F)CC1 [Compound 50] | < 10 µM | < 10 µM |
| CCOC(=O)N[C@H]1CC[C@H](N/C(=N\C(=O)c2ccc(F)c(F)c2)NCc2cccc(C(F)(F)F)c2)CC1 [Compound 51] | < 10 µM | < 10 µM |
| CCOC(=O)N[C@H]1CC[C@H](N/C(=N\C(=O)c2ccc(F)c(F)c2)NCc2ccc(C(F)(F)F)cc2)CC1 [Compound 52] | < 10 µM | < 10 µM |
| CCOC(=O)N[C@H]1CC[C@H](N/C(=N\C(=O)c2ccc(F)c(F)c2)NCc2ccccc2F)CC1 [Compound 53] | < 10 µM | < 10 µM |
| CCOC(=O)N[C@H]1CC[C@H](N/C(=N\C(=O)c2ccc(F)c(F)c2)NCc2cccc(F)c2)CC1 [Compound 54] | < 10 µM | < 10 µM |
| CCOC(=O)N[C@H]1CC[C@H](N/C(=N\C(=O)c2ccc(F)c(F)c2)NCc2cc(F)ccc2F)CC1 [Compound 55] | < 10 µM | < 10 µM |
| CCOC(=O)N[C@H]1CC[C@H](N/C(=N\C(=O)c2ccc(F)c(F)c2)NCc2ccc(F)c(F)c2)CC1 [Compound 56] | < 10 µM | < 10 µM |
| CCOC(=O)N[C@H]1CC[C@H](N/C(=N\C(=O)c2ccc(F)c(F)c2)NCc2cccc(F)c2F)CC1 [Compound 57] | < 10 µM | < 10 µM |
| CCOC(=O)N[C@H]1CC[C@H](N/C(=N/C(=O)c2ccc(F)c(F)c2)NC2CCCC2)CC1 [Compound 70] | – | > 10 µM |
| O=C(/N=C(/Nc1cc(F)cc(Cl)c1)N[C@H]1CCCC[C@@H]1O)c1ccc(C(F)(F)F)cc1 [Compound 127] | – | < 10 µM |
